Data: patent US20150133543A1, “TOPICAL GEL COMPOSITION COMPRISING AN INGENOL DERIVATIVE AND A SOLVENT MIXTURE” (LEO Laboratories Limited, priority 2012, published 2015)
Converted amounts (≈) assume the structure as drawn. Read-outs that look alike come from different tables or passages of the source.

Columns and labels:
[1] = oral administration to rats, versus a formulation in lipid alone; cited from earlier work
[2] = Solubility of ingenol-3-angelate in co-solvents; format: physicochemical; conditions: organic solvent or mixture
Text: In order to effect a highly efficient dissolution of the ingenol derivative it may be favourably to add a co-solvent to the composition. The co-solvent may be selected from the group consisting of lower alcohols, such as n-propanol, isopropanol, n-butanol, 2-butanol or benzyl alcohol, diols such as propylene glycol, a pyrrolidone such as N-methylpyrrolidone or N-hydroxyalkylpyrrolidone, an azone, ethyl acetate, dodecyl amine, diethylene glycol monoethyl ether, a fatty acid such as oleic or lauric acid, propylene carbonate, menthol or limolene. In particular, ingenol-3-angelate is soluble to freely soluble in the co-solvents benzyl alcohol (201-223 mg/ml), N-methylpyrrolidone (104-260 mg/ml), ethyl acetate (102-255 mg/ml), isopropanol (225-248 mg/ml) and diethylene glycol monoethyl ether (57-114 mg/ml). Some of these co-solvents, such as lower alcohols, may also, as required, act as penetration enhancers aiding the penetration of the ingenol derivative into the viable layers of the skin.

SMILES	bioavailability of seocalcitol [1]	solubility ([2]; co-solvent N-methylpyrrolidone, read-out: solubility in N-methylpyrrolidone) [mg/mL]	solubility ([2]; co-solvent benzyl alcohol, read-out: solubility in benzyl alcohol) [mg/mL]	solubility ([2]; co-solvent diethylene glycol monoethyl ether, read-out: solubility in diethylene glycol monoethyl ether) [mg/mL]	solubility ([2]; co-solvent ethyl acetate, read-out: solubility in ethyl acetate) [mg/mL]	solubility ([2]; co-solvent isopropanol, read-out: solubility in isopropanol) [mg/mL]
C=C1/C(=C\C=C2/CCC[C@]3(C)[C@@H]([C@H](C)/C=C/C=C/C(O)(CC)CC)CC[C@@H]23)C[C@@H](O)C[C@@H]1O [seocalcitol]	not improved					
C/C=C(/C)C(=O)O[C@H]1C(C)=C[C@]23C(=O)[C@@H](C=C(CO)[C@@H](O)[C@]12O)[C@H]1[C@@H](C[C@H]3C)C1(C)C [ingenol-3-angelate, 2-methyl-2(Z)-butenoic acid (1aR,2S,5R,5aS,6S,8aS,9R,10aR)-5,5a-dihydroxy-4-(hydroxymethyl)-1,1,7,9-tetramethyl-11-oxo-1a,2,5,5a,6,9,10,10a-octahydro-1H-2,8a-methanocyclopenta[a]cyclopropa[e]cyclodecen-6-yl ester]		104 to 260 (≈ 242 to 604 mM)	201 to 223 (≈ 467 to 518 mM)	57 to 114 (≈ 132 to 265 mM)	102 to 255 (≈ 237 to 592 mM)	225 to 248 (≈ 523 to 576 mM)
